Series [1] can be described thus: Influence on amphetamine-induced hypermobility. The class given is in vivo, mouse. The note with it: d-amphetamine sulfate 5 mg/kg i.p. alone. As for the experimental part: Six groups of 4 mice each were treated with 5 mg/kg d-amphetamine sulfate by intraperitoneal administration. Six groups of 4 animals each received the same dose of d-amphetamine sulfate plus 250 mg/kg of AP-28 intraperitoneally 15 minutes after d-amphetamine sulfate; six more groups of four animals each received saline solution and served as control animals. […] The number of times each animal crossed the light beam throughout the 10-minute test was noted.

The nature of series [2]: Enhancement of the hypnotic effect of sodium pentobarbital. The class given is in vivo, mouse. To be noted: sodium pentobarbital 40 mg/kg i.p. alone. How it is done: Forty mg/kg of sodium pentobarbital was injected intraperitoneally into mice and note was taken of animals losing the righting reflex and for how long. Other mice received a preliminary treatment with AP-28 at a dosage of 250 and 500 mg/kg, intraperitoneally, and thereafter sodium pentobarbital was given to them.

Series [3] can be described thus: Protective effect against electroshock (MES). The note with it: phenobarbital Na 40 mg/kg i.p., 10 minutes before electroshock.
Series [4] is classed as in vivo, mouse. The note with it: control experiments; 95-percent confidence limits. As for the experimental part: This type of antagonism was evaluated in the mouse in three ways, namely: (1) protection from death from one hypodermic injection of strychnine: (2) evaluation of the LD50 of strychnine in mice both treated and untreated with AP-28, and (3) influence on the time required to cause animals to die by slow intravenous perfusion of strychnine. […] Groups of six mice were used. (2) increasing amounts of strychnine sulfate were injected hypodermically. In two experiments 200 or 400 mg/kg of intraperitoneal AP-28 were given 30 minutes prior to strychnine injection and the LD50 was calculated. The following results were obtained (95-percent confidence limits): […]

Counter-ions that a name gives are not always drawn.

`C[C@H](N)Cc1ccccc1` [d-amphetamine, d-amphetamine sulfate, reference compound]: the “Mean number of crossings (± SE) in 10 minutes” value in series [1] is recorded as 657 ± 59. With `CCCC(C)C1(CC)C(=O)NC(=O)NC1=O` (stereo not shown) [sodium pentobarbital, reference compound], in series [2], the Animals under hypnosis/treated is reported as 3/4. Further, the “Duration of hypnosis in minutes (m ± SE)” value in series [2] (zero assigned to animals not losing righting reflex) came to 3.25 ± 3.4 min. `CCC1(c2ccccc2)C(=O)NC(=O)NC1=O` [Phenobarbital Na, Phenobarbital sodium, reference compound]: the Number animals died in series [3] is 0/8. In series [3] (in parentheses number treated), the “Number animals with clonic convulsions” value is 8(8) and the “Number animals with tonic convulsions” value is 0(8). Regarding `O=C1C[C@@H]2OCC=C3CN4CC[C@]56c7ccccc7N1[C@H]5[C@H]2[C@H]3C[C@H]46` [Strychnine, strychnine sulfate], the LD50 of strychnine in series [4] was 0.83 (1.02-0.67) mg/kg.

The values are drawn from patent US3968233A, “α-Amino-γ-butyrolactones as sedatives” (priority 1975, dated 1976).
